pEC50: −log10 of the molar value. The source made the active and inactive calls.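 Rule for the calls: active = EC50 below 50 µM in the dose-response confirmation; inactive = the rest.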
Test system: CSM14.1 thapsigargin-induced death rescue, ATP luminescence
Assay: rescue of cells from ER stress-induced death, primary screen, 384-well, CSM14.1, thapsigargin, ATP luminescence (AID 1222);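 note: death triggered by thapsigargin at about 15 µM added after 2 h compound pretreatment; cell ATP read after overnight thapsigargin exposure of roughly 18 to 22 hours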

For `Cc1ccc(OCC(=O)NCCC2=CCCCC2)cc1`, which EC50 is on record?
The EC50 was > 100 µM (inactive).

`Cc1cc(CNC(=O)Cc2ccccc2)c2ccccc2n1` was tested. Which EC50 did it give?
Its EC50 is > 100 µM (inactive).

How did the EC50 turn out when `COC(=O)c1ccc(NC(=O)C2CC(=O)N(c3ccc(C)cc3)C2)cc1` (stereo not given) was run?
Its EC50 is > 100 µM (inactive).

Which EC50 does the source give for `COc1ccc(C2=C/C(=C\c3cccc(OC(C)=O)c3)C(=O)O2)cc1` here?
Its EC50 is > 100 µM (inactive).

How did the pEC50 turn out when `O=C(NC1CCCCC1)C(c1ccc2ncccc2c1)N(Cc1ccc(F)cc1)C(=O)c1ccc2c(c1)OCCO2` (stereo not given) was run?
Its pEC50 is 4.54.

Which EC50 does the source give for `CC1=NN(/C(=N\c2nnc(C)s2)Nc2ccccc2)[C@H](c2ccc(C)cc2)S1` here?
Its EC50 is > 100 µM (inactive).

How did the EC50 turn out when `Cc1nc(N2CCN(C(=O)c3ccco3)CC2)c2c3c(sc2n1)CC(C)CC3` (stereo not given) was run?
The EC50 was 58.7 µM (inactive).

How did the EC50 turn out when `CCCCC(=O)NNC(=S)NC(=O)c1ccc(C)cc1` was run?
Its EC50 is > 100 µM (inactive).

`CCO[C@@H]1OC(C(=O)N2CCN(Cc3ccc4c(c3)OCO4)CC2)=C[C@H](c2csc3ccccc23)[C@H]1CCCO` was tested. Which EC50 did it give?
Its EC50 is 86.1 µM (inactive).

With `Cc1cccc(C(=O)O/N=C(/c2ccccc2)c2ccncc2)c1` as the compound, how does the EC50 read?
Its EC50 is > 100 µM (inactive).

`CC(C)CC(NC(=O)OC(C)(C)C)c1cn([C@@H](Cc2cc3ccccc3[nH]2)C(=O)N2CCN(C(=O)OC(C)(C)C)CC2)nn1` (stereo not given in full) was tested. Which EC50 did it give?
The EC50 was 62.2 µM (inactive).

Which EC50 does the source give for `CCC(=O)NC(=S)NNC(=O)c1ccc(OC)cc1` here?
The EC50 was > 100 µM (inactive).

Which EC50 does the source give for `COCCn1c(C)cc(C(=O)COC(=O)CCN2C(=O)c3ccccc3C2=O)c1C` here?
The EC50 was > 100 µM (inactive).

With `O=C(NC1CCCCC1)C(c1ccc2ncccc2c1)N(Cc1ccc2c(c1)OCO2)C(=O)c1ccc2c(c1)OCCO2` (stereo not given) as the compound, how does the pEC50 read?
Its pEC50 is 4.67.

How did the pEC50 turn out when `O=C(NC1CCCCC1)C(c1ccc2ncccc2c1)N(Cc1ccccc1)C(=O)c1ccc2c(c1)OCCO2` (stereo not given) was run?
Its pEC50 is 4.49.

`O=C(Nc1nc(-c2cc(F)ccc2F)cs1)c1ccccn1` was tested. Which EC50 did it give?
Its EC50 is > 100 µM (inactive).

`Cc1ccc(-c2nnn(CC(=O)N(Cc3cccs3)C(C(=O)NC3CCCC3)c3ccncc3)n2)cc1` (stereo not given) was tested. Which EC50 did it give?
The EC50 was > 100 µM (inactive).

`CCOC(=O)C1=C(NC(=S)NC(=O)c2ccccc2)c2ccccc2CC1(C)C` was tested. Which EC50 did it give?
Its EC50 is > 100 µM (inactive).

How did the EC50 turn out when `COc1ccc(C(=O)C(OC(=O)c2ccccc2)c2ccccc2)cc1` (stereo not given) was run?
Its EC50 is 66.5 µM (inactive).

Which EC50 does the source give for `CCc1ccc(CC2S/C(=C(\C#N)C(C)=O)NC2=O)cc1` (stereo not given) here?
Its EC50 is > 100 µM (inactive).

Which EC50 does the source give for `CCN(CC)c1ccc(/C=C(/C#N)c2nc3ccc(C)cc3[nH]2)c(OC(C)C)c1` here?
The EC50 was > 100 µM (inactive).

Which EC50 does the source give for `O=C(Nc1nonc1-c1ccc(Cl)cc1)c1ccccc1` here?
The EC50 was > 100 µM (inactive).

With `CCCCCCn1c(O)c(/C=C2\C=NN=C2c2ccccc2)sc1=S` as the compound, how does the EC50 read?
Its EC50 is > 100 µM (inactive).

How did the EC50 turn out when `O=c1[nH]c(-c2ccccn2)nc2sc(-c3ccccc3)cc12` was run?
The EC50 was > 100 µM (inactive).

With `C#CCOCCOCCOCCNc1nc(N2CCN(C(=O)[C@H](C)n3cc(CCCN=C(N)N)nn3)CC2)nc(N2CCN(C(=O)[C@H](C)n3cc(CCCN=C(N)N)nn3)CC2)n1` as the compound, how does the EC50 read?
Its EC50 is > 100 µM (inactive).

Which EC50 does the source give for `COc1ccc(CN(C(=O)c2cccs2)C(C(=O)NC2CCCCC2)c2ccc3ncccc3c2)cc1` (stereo not given) here?
The EC50 was 68.5 µM (inactive).

With `O=C(c1ccc(N2CCCC2=O)cc1)N1CCCCCC1` as the compound, how does the EC50 read?
Its EC50 is > 100 µM (inactive).

`COc1ccc(CNC(=O)CCCn2nc(C)c([N+](=O)[O-])c2C)cc1OC` was tested. Which EC50 did it give?
Its EC50 is > 100 µM (inactive).

For `CCOc1ccccc1NC(=O)C(OC(=O)c1ccccc1NS(=O)(=O)c1cccs1)c1ccccc1` (stereo not given), which EC50 is on record?
The EC50 was > 100 µM (inactive).

With `CCCCC(=O)NC(=S)NNC(=O)c1ccc(Cl)cc1Cl` as the compound, how does the EC50 read?
The EC50 was > 100 µM (inactive).

For `COc1ccc(C(=O)NNC(=S)NC(=O)C(C)(C)C)cc1`, which EC50 is on record?
The EC50 was > 100 µM (inactive).

How did the EC50 turn out when `COc1ccc(/C=C/C(=O)N2CCCc3ccccc32)cc1` was run?
Its EC50 is > 100 µM (inactive).

`Cc1c(Cl)c(C(F)F)nn1CC(=O)NC1C(=O)N2C(C(=O)O)=C(CSc3nnnn3C)CSC12` (stereo not given) was tested. Which EC50 did it give?
Its EC50 is > 100 µM (inactive).

Which EC50 does the source give for `O=C(NC1CCCCC1)C(c1ccncc1)N(Cc1ccccc1)C(=O)c1ccc(-c2ccccc2)[nH]1` (stereo not given) here?
Its EC50 is 52.5 µM (inactive).

`COc1ccc(CN(C(=O)c2ccc3c(c2)OCCO3)C(C(=O)NC2CCCCC2)c2ccc3ncccc3c2)cc1` (stereo not given) was tested. Which pEC50 did it give?
Its pEC50 is 4.50.

How did the EC50 turn out when `CC(C)C(=O)N1CCC(CN=Cc2c(O)n(C3CCCCC3)c(=O)n(C3CCCCC3)c2=O)CC1` was run?
The EC50 was 70.3 µM (inactive).

How did the EC50 turn out when `Cc1ccc2cccc(N=Cc3c(C)[nH]n(-c4ccccc4)c3=O)c2n1` was run?
Its EC50 is > 100 µM (inactive).

`C#CCOCCOCCOCCNc1nc(N2CCN(C(=O)[C@H](CCCCN)n3cc(CCCC)nn3)CC2)nc(N2CCN(C(=O)[C@H](CCCCN)n3cc(CCCC)nn3)CC2)n1` was tested. Which EC50 did it give?
Its EC50 is > 100 µM (inactive).

With `CCCC1=[N+](CC(C)=O)CCn2c(C)ccc21` as the compound, how does the EC50 read?
The EC50 was > 100 µM (inactive).

For `CN1CCC(O)(c2ccccc2)C(C(=O)c2ccccc2)C1` (stereo not given), which EC50 is on record?
The EC50 was > 100 µM (inactive).

For `Cc1ccc2c(C(=O)N3CCN(c4ccccc4)CC3)cc(-c3cccnc3)nc2c1C`, which EC50 is on record?
Its EC50 is 81.3 µM (inactive).

Which EC50 does the source give for `COc1ccc(NC2=Nc3ccccc3N3C2=Nc2c(c(C)nn2-c2ccc(C)cc2)C3c2cccnc2)cc1` (stereo not given) here?
Its EC50 is 92.6 µM (inactive).

For `CCOc1cc(/C=N/NC(=O)COc2cccc(C)c2)ccc1OC(=O)c1cccs1`, which EC50 is on record?
The EC50 was > 100 µM (inactive).

`Clc1ccc(OCCCN2CCCCC2)c(Br)c1` was tested. Which EC50 did it give?
The EC50 was > 100 µM (inactive).

How did the EC50 turn out when `COc1ccccc1Cn1c(=S)[nH]c2cc(C(=O)NCC3CCCO3)ccc2c1=O` (stereo not given) was run?
The EC50 was > 100 µM (inactive).

How did the pEC50 turn out when `CC12COC3(P(=O)(c4ccccc4)c4ccccc4)CC1CCC23CP(=O)(c1ccccc1)c1ccccc1` (stereo not given) was run?
Its pEC50 is 4.40.

`O=S(=O)(c1ccc2c(c1)OCCO2)N1CCN(c2nc(-c3cccnc3)nc3ccccc23)CC1` was tested. Which EC50 did it give?
The EC50 was 76.4 µM (inactive).

For `CNC(=O)c1c(NC(=O)c2nc3ccccc3s2)sc2c1CCC2`, which EC50 is on record?
Its EC50 is > 100 µM (inactive).

With `CCN1C(=O)/C(=C/c2ccc3c(c2)CCN3CCCCl)C(=O)NC1=S` as the compound, how does the pEC50 read?
The pEC50 was 4.35.

How did the EC50 turn out when `CCC(=O)Nc1nc2ccccc2n1Cc1ccc(Cl)cc1` was run?
The EC50 was > 100 µM (inactive).

How did the EC50 turn out when `O=c1c2c(-c3ccccc3)csc2ncn1/N=C/c1cccc([N+](=O)[O-])c1O` was run?
The EC50 was > 100 µM (inactive).

Which EC50 does the source give for `C=C(C)CNC(=S)N/N=C/c1ccc([N+](=O)[O-])cc1` here?
The EC50 was > 100 µM (inactive).

How did the EC50 turn out when `C#CCOCCOCCOCCNc1nc(N2CCN(C(=O)[C@H]([C@@H](C)CC)n3cc(CCCN=C(N)N)nn3)CC2)nc(N2CCN(C(=O)[C@H](CCCCN)n3cc(CCCC)nn3)CC2)n1` was run?
The EC50 was > 100 µM (inactive).

With `CCN1CCc2c(OCC(=O)N3N=C(c4cccs4)CC3c3ccc(F)cc3)cccc2C1=O` (stereo not given) as the compound, how does the pEC50 read?
Its pEC50 is 4.38.

For `O=C(CSc1nnnn1-c1ccccc1)c1cc2ccccc2oc1=O`, which EC50 is on record?
Its EC50 is > 100 µM (inactive).

How did the EC50 turn out when `COc1ccc(-c2oc3ccccc3c(=O)c2OC(C)=O)cc1` was run?
Its EC50 is > 100 µM (inactive).

For `COC(=O)[C@@]1(Cc2ccc(F)cc2)[C@H]2c3cc(C(=O)N4CCCC4)n(CCc4c[nH]c5ccc(OC)cc45)c3C[C@H]2CN1C(=O)c1ccccc1`, which EC50 is on record?
Its EC50 is 66.2 µM (inactive).

Which EC50 does the source give for `CC[C@@H](C)[C@@H](C(=O)N1CCN(C(=O)OC(C)(C)C)CC1)n1cc(CCCN=C(NC(=O)OC(C)(C)C)NC(=O)OC(C)(C)C)nn1` here?
The EC50 was 58.5 µM (inactive).

How did the EC50 turn out when `CC12C(=O)N(c3ccc(C(=O)N4CCOCC4)cc3)C(=O)C1C1c3ccccc3C2c2ccccc21` (stereo not given) was run?
The EC50 was > 100 µM (inactive).

`C/C(=N\NC(=S)Nc1cccc(C)c1)c1ccco1` was tested. Which EC50 did it give?
The EC50 was > 100 µM (inactive).

From PubChem BioAssay AID1222 (Sanford-Burnham Center for Chemical Genomics, 2008)
